Source: patent US20210084905A1, “METHODS AND COMPOSITIONS FOR AQUACULTURE” (priority 2018, published 2021)

Key:
[1] = tested on: V. cholerae O1 strain, H1; experiment: sensitivity to the A603 phenazine; format: cell-based
Source text: GO annotations were not assigned to these genes thus they were not included in the hypergeometric and GSEA analyses. One gene (TMChrII_2378) encodes a protein with high structural conservation to heme monooxgenase and the other (TMChrI_2040) a dioxygenase that closely resembles a bleomycin resistance proteins. A second dioxygenase (TMChr1_3001) is also among the top induced genes. This family of dioxygenase proteins includes those that can bind and in some cases hydrolyze planar and aromatic antibacterial molecules including phenazines. Though amino acid sequence similarity is poor, the predicted structure of TMChr1_2040 is very similar to EphR, a protein that loosely binds phenazine in producer strains and confers resistance by binding molecules until export.

[2] = tested on: bacterial strains seeded into an agar soft overlay; experiment: secretion assay, soft agar overlay (halo of inhibition); format: cell-based; details: secreted antibacterial compound
Experimental: Many other phenazine molecules including pyocyanin are shown to elicit antibacterial activity often by causing oxidative stress. To test whether the genes hit in the transposon insertion screen are required, two separate genes with insertions (orf6 & orf8) in the region of the operon were precisely deleted in A603 ΔvipA.
The spectrum of inhibition for the putative phenazine molecule was tested by seeding agar with a diverse set of laboratory and environmental strains using A603 ΔvipA and an isogenic double knockout A603 ΔvipA Δorf8 to score inhibition by appearance of a halo around A603 ΔvipA.

**Q.** c1ccc2nc3ccccc3nc2c1 [A603 phenazine] was tested. Which “sensitivity of V. cholerae O1 strain H1” value [1] did it give?
**A.** The value was “very sensitive”.

**Q.** And the “growth inhibition (halo) in soft agar overlay” value [2]?
**A.** Its value is “broad spectrum antibacterial activity”.
